Measurements: patent US20260193672A1, “INDUCIBLE CELL SUICIDE SWITCHES AND THEIR USE IN CELL AND GENE THERAPIES” (The General Hospital Corporation, priority 2022, published 2026)

Key:
Jurkat cells [1] = assay: Loss of BFP+ cells with three degron tags fused to ICAD; type: cell-based; details: 48 hours of exposure to controller drug; SMASH tag, dTAG or IKZF3 degron fused to ICAD
Description: (§1) Unless otherwise indicated, cell death assays with Jurkat or primary human T cells were performed by 48 hour incubation with the relevant drug and flow cytometry analysis for the marker of transduction.
To determine whether the ICAD-degron CAD suicide switch design is generalizable to multiple degron systems, three different degron tags (SMASH, dTag, superdegron) were fused to ICAD to facilitate ICAD degradation.

[2] = system: Jurkat cells expressing the switch; assay: DNA damage assay (gamma-H2AX intracellular flow); type: cell-based
Source text: To determine whether promoter strength modifies ICADdegron-CAD suicide switch efficiency, Jurkat cells were transduced to express the ICAD-degron 2A CAD p.R11W suicide switch was expressed, driven by an EF1alpha or PGK promoter.

[3] = system: ICAD-degron/CAD suicide switch-positive primary human T cells; assay: Depletion of ICAD-degron/CAD suicide switch-positive T cells; type: cell-based; details: 1 uM lenalidomide treatment
Description: as §1
Control of CAR T cell function with a lenalidomide suicide switch was also evaluated.

NALM6 tumor cells = assay: Incucyte live cell imaging co-culture assay, tumor cell cytolysis; type: cell-based
Description: (§2) On day −1, tissue culture plates were coated with anti-CD71 antibody diluted in PBS. On day 0, the plates were washed with PBS and then Nalm6-luciferase-GFP cells were added to the coated plates. Four hours later, primary human CAR T cells were added at a 1:1 ratio with the Nalm6 cells. Plates were imaged every hour for at least 90 hours ([…] ZOOM, live-cell analysis system). Total green, red, and blue object areas were collected, indicative of GFP+ tumor and mCherry+/mTagBFP2+ CAR and/or suicide switch T cell area.
Tumor cell cytolysis was evaluated by Incucyte live cell imaging co-culture assay with NALM6 tumor cells.
We also generated a tri-cistronic suicide switch CAR lentivector. The same Incucyte live cell imaging co-culture assay with NALM6 tumor cells and single lentivector ICAD-degron/CAD/CAR was performed in primary human T cells. […] With lenalidomide, anti-tumor cytolysis was prevented.

[4] = system: suicide switch CAR T cells; assay: Incucyte live cell imaging co-culture assay, CAR T cell proliferation; type: cell-based, human
Description: as §2
In summary, the suicide switch can be used to deplete CAR T cells (FIG. 6E).

[5] = system: cells transduced to express pairs of BCL-xL and variants of PUMA; assay: Growth and survival of cells expressing BCL-xL and PUMA variants fused to 913iK0; type: cell-based; details: BCL-xL and PUMA variants fused to E3 recruitment domain 913iK0
Description: Pairs of pro/anti-apoptotic proteins were evaluated for their ability to work as an effective suicide switch. BCL-xL and BIM transgene pairs were toxic to Jurkat cells transduced to express these lentiviruses, as assessed by total cell number 48 hours after high-titer transduction, see FIG. 1A. […] In this design, the goal was for the pro-apoptotic protein PUMA to bind endogenous anti-apoptotic proteins, and for drug-dependent recruitment to the E3 to result in anti-apoptotic protein ubiquitination, degradation, and cell death.

[6] = system: cells expressing ICAD-degron/CAD; assay: Cell depletion by ICAD-degron/CAD lenalidomide-inducible suicide switch (summary statement); type: cell-based; details: lenalidomide-induced, subtherapeutic lenalidomide concentrations
Description: as §1

[7] = system: primary human CAR T cells; assay: Competitive proliferation assay of suicide switch-transduced versus untransduced cells; type: cell-based; details: without lenalidomide
Source text: Cells were stimulated weekly with an equal number of irradiated K562 cells transduced to express CD3 and CD28 scFvs. Flow cytometry was used to enumerate the percentage of mTagBFP2+ cells on days 0, 7, and 14.

primary human T cells = assay: Cell depletion, CAD/ICAD versus iCasp9 suicide switch, head-to-head; type: cell-based; details: dose ranges of lenalidomide and AP1903, normalized to untreated cells
Description: as §1

Jurkat cells [8] = assay: Competitive growth assay of modified lenalidomide suicide switches; type: cell-based; details: for cell viability, normalized fluorescence: in the absence of lenalidomide, normalized to % transduced on day 0
Source text: To assess whether further modification of CAD could further enhance the suicide switch, we performed structural modeling of CAD, identifying side chain interactions with R11 and W 11 in the mutant form.

primary human T cell = assay: Four-day growth assay; type: cell-based; details: compared with other CAD sequences and vector control
Description: To test whether variations in CAD modify the performance of CAD/ICAD suicide switch, a primary human T cell four-day growth assay was performed comparing vector control, and then three modifications of ICAD-degron 2A CAD expression, differentiated by the CAD sequences.

CC[C@H](C(=O)N1CCCC[C@H]1C(=O)O[C@H](CCc1ccc(OC)c(OC)c1)c1ccccc1OCC(=O)NCCCCCCOc1cccc2c1C(=O)N(C1CCC(=O)NC1=O)C2=O)c1cc(OC)c(OC)c(OC)c1 (stereo partly drawn) [dTAG-13, 1-[(2S)-1-Oxo-2-(3,4,5-trimethoxyphenyl)butyl]-(2S)-2-piperidinecarboxylate (1R)-3-(3,4-dimethoxyphenyl)-1-[2-[2-[[6-[[2-(2,6-dioxo-3-piperidinyl)-2,3-dihydro-1,3-dioxo-1H-isoindol-4-yl]oxy]hexyl]amino]-2-oxoethoxy]phenyl]propyl ester]
drug-dependent cell depletion (loss of BFP+ cells) (Jurkat cells [1]): allowed for drug-dependent cell depletion

Nc1nc(O)c2ncn(COC(CO)CO)c2n1 [ganciclovir]
drug-dependent cell depletion (loss of BFP+ cells) (Jurkat cells [1]): but not the SMASH tag, allowed for drug-dependent cell depletion

Nc1cccc2c1CN(C1CCC(=O)NC1=O)C2=O (stereo not drawn) [lenalidomide]
time in which DNA damage sensing occurred ([2]; gamma-H2AX, timecourse after 1000 nM lenalidomide addition): within one hour
depletion of suicide switch-positive primary human T cells [3]: successful depletion
effect on tumor cell depletion by suicide switch CAR T cells (NALM6 tumor cells; 16 hour delayed lenalidomide, dual-vector CAR T cells): ablated tumor cell depletion
effect on tumor cell cytolysis by suicide switch CAR T cells (NALM6 tumor cells; immediate lenalidomide, dual-vector CAR T cells): prevented tumor cell cytolysis
effect on anti-tumor cytolysis, single lentivector ICAD-degron/CAD/CAR T cells (NALM6 tumor cells; with lenalidomide): prevented
time to depletion of the CAR T cells ([4]; after 16 hour delayed lenalidomide, without rebound): ≤ 24 h
effect on suicide switch CAR T cell expansion ([4]; immediate lenalidomide): prevented suicide switch CAR T cell expansion
drug-dependent cell depletion (loss of BFP+ cells) (Jurkat cells [1]): allowed for drug-dependent cell depletion
effect on growth and survival of cells [5]: did not alter the growth and survival
cell depletion [6]: > 90%

ICAD-degron 2A CAD p.R11W: multicistronic transgene: C-terminally degron-tagged human ICAD, 2A, human CAD p.R11W (SEQ ID NO: 19/20)
DNA damage response by promoter strength ([2]; Jurkat cells, EF1alpha promoter compared with PGK promoter): enhanced DNA damage response
T cell proliferation in competition with untransduced cells, compared with control [7]: comparable
cell killing compared with iCasp9 switch (primary human T cells): more complete cell killing
cell viability, normalized fluorescence (Jurkat cells [8]): improved cell viability
drug-independent cell fitness (primary human T cell): enhanced drug-independent cell fitness
cell depletion [6]: > 90%

ICAD-degron-CADp.R11A: suicide switch transgene with CAD p.R11A (SEQ ID NO: 23/24)
cell viability, normalized fluorescence (Jurkat cells [8]): improved cell viability

ICAD-degron-CADp.R11W/E68A: suicide switch transgene with CAD p.R11W/E68A (SEQ ID NO: 29/30)
cell viability, normalized fluorescence (Jurkat cells [8]): improved cell viability

ICAD-degron-CADp.R11W/K18A: suicide switch transgene with CAD p.R11W/K18A (SEQ ID NO: 27/28)
cell viability, normalized fluorescence (Jurkat cells [8]): improved cell viability
cell depletion (Jurkat cells [8]; with 1 uM lenalidomide): efficient cell depletion
drug-independent competitive growth (Jurkat cells [8]; without lenalidomide): most improved

ICAD-degron-CADp.Y49W: suicide switch transgene with CAD p.Y49W (SEQ ID NO: 25/26)
cell viability, normalized fluorescence (Jurkat cells [8]): improved cell viability
